Drawing on patent US5688767A, “Treatment of endotoxin-associated disorders with cationic peptides” (priority 1996, dated 1997), this text covers MIC for one molecule.

In the assay the test system is S. typhimurium. Nature of the assay: microbe, parasite or virus in culture. In kind it is cell-based, Salmonella typhimurium. How it is done:
The minimum inhibitory concentrations of (MIC) of CEME, CEMA and melittin were determined for a number of different bacteria (Table 2). Briefly, cells were grown overnight at 37° C. in LB-S (Luria broth without any salt supplement) and diluted one in 10,000 in the same medium to give concentrations of about 10^4 to 10^5 CFU/ml. The broth dilutions were set up in a 96 well microtiter plate by putting 200 μl of LB-S containing the initial concentration of antibiotic or compound in column 1 and 100 μl of the same medium in columns 2-12. The compounds were diluted by taking 100 μl of broth from column 1 and mixing it with column 2, resulting in a one in two dilution. This was continued to column 10. Finally, 10 μl of bacteria were pipetted into columns 1-11, and the plates incubated overnight at 37° C. The next day the plates were scored for growth in the wells, and the MIC determined.
Bacteria included the Bort strain of E. coli (Bortolussi, et al., Inf. Immun., 25:293, 1979) that was originally derived from a case of neonatal meningitis, and which is therefore considered a relevant pathogenic strain to study, and the 0111:B4 strain of E. coli (kindly provided by Dr. D. Morrison) which is a standard source of endotoxin. (Kelly, et al., Inf. Immun., 59:4491, 1991). In addition, P. aeruginosa PA01 strain H103, P. aeruginosa M2, P. aeruginosa K799, Eschericha coli UB 1005, Enterobacter cloacae 218S, Salmonella typhimurium MS7953s, Klebsiella pneumoniae ATCC 13883, Xanthomonas maltophilia ATCC 13637, and Acinetobacter calcoacetious 8193 were employed. LPS was obtained from E. coli Bort by the technique of Westphal and Jann, (Westphal, et al., Acad. Press, Inc. NY., 5:83) and from P. aeruginosa H103 by the method of Darveau and Hancock, (Darveau, et al., J. Bacteriol, 155:831, […]). E. coli 0111:B4 LPS was purchased from Sigma.

Converted amounts (≈) assume the structure as drawn.

In the case of `CC[C@H](C)[C@H](NC(=O)CNC(=O)[C@@H](NC(=O)[C@H](CCCCN)NC(=O)[C@H](CCCCN)NC(=O)[C@H](Cc1ccccc1)NC(=O)[C@H](CC(C)C)NC(=O)[C@H](CCCCN)NC(=O)[C@H](Cc1c[nH]c2ccccc12)NC(=O)[C@@H](N)CCCCN)[C@@H](C)CC)C(=O)NCC(=O)N[C@@H](C)C(=O)N[C@H](C(=O)N[C@@H](CC(C)C)C(=O)N[C@@H](CCCCN)C(=O)N[C@H](C(=O)N[C@@H](CC(C)C)C(=O)N[C@H](C(=O)N[C@H](C(=O)NCC(=O)N[C@@H](CC(C)C)C(=O)N1CCC[C@H]1C(=O)N[C@@H](C)C(=O)N[C@@H](CC(C)C)C(=O)N[C@@H](CCCCN)C(=O)N[C@@H](CC(C)C)C(=O)N[C@H](C(=O)N[C@@H](CCCCN)C(=O)O)[C@@H](C)O)[C@@H](C)O)[C@@H](C)O)C(C)C)C(C)C` [CEMA], the MIC came to 4 µg/mL (≈ 1.3 µM) (Salmonella typhimurium MS7953s); 5.6 µg/mL (≈ 1.83 µM) (strain C587, Parent of C590); 1.4 µg/mL (≈ 0.457 µM) (strain C590, Defensin sensitive).
